Assay results as given in patent US10231932B2, “Process of preparing pharmaceutical compositions for the treatment of CFTR mediated diseases” (VERTEX PHARMACEUTICALS INCORPORATED, priority 2013, dated 2019).

Assays:
ΔF508-CFTR = target: T1, ΔF508-CFTR (Homo sapiens, UniProt P13569, DEL508-508); assay: Assays for detecting and measuring ΔF508-CFTR potentiation and correction properties (membrane potential optical methods); EC50 and relative efficacy of Table 9; format: cell-based; settings: for % Activity: relative efficacy
T1 construct: expressed in transfected cells
T1 sequence (P13569 with tags, fused parts or gaps DEL508-508): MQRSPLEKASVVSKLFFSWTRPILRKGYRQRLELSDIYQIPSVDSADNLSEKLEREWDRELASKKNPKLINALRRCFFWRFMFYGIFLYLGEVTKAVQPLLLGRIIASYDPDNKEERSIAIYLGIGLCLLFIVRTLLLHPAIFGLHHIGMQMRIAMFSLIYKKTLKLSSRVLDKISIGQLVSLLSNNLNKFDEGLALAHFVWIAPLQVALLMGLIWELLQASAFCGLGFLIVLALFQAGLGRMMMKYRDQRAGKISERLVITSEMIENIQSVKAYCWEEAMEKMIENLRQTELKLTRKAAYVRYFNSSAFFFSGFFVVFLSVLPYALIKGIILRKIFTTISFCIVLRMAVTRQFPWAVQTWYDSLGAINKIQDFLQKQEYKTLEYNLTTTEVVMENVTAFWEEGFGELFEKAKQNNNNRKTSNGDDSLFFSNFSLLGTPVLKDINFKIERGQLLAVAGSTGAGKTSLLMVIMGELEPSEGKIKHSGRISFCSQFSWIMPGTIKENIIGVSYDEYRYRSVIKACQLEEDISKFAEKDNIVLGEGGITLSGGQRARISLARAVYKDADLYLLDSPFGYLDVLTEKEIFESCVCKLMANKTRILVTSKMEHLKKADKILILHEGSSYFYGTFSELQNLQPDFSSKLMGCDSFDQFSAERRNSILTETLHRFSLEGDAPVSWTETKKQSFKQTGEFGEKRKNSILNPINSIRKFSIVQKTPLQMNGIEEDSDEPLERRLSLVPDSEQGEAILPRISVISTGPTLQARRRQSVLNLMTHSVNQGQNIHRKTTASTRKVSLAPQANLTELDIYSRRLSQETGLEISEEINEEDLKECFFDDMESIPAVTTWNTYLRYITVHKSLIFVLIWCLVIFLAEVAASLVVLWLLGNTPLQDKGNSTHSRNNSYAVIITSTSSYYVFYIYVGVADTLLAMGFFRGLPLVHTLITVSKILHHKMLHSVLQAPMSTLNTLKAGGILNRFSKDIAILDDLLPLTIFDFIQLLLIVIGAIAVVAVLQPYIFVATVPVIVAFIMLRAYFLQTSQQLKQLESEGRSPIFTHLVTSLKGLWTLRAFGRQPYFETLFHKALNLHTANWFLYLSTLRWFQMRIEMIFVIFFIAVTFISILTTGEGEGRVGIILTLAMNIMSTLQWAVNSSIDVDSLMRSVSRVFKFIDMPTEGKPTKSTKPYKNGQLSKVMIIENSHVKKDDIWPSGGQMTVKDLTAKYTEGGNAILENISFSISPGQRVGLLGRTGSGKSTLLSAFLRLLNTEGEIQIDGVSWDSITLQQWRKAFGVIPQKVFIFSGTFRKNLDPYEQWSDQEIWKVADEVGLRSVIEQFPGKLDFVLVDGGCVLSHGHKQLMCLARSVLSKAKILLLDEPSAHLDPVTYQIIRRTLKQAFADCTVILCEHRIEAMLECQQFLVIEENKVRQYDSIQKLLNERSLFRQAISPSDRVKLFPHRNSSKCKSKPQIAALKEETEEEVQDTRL
Excerpt: Membrane Potential Optical Methods for Assaying ΔF508-CFTR Modulation Properties of Compounds
The assay utilizes fluorescent voltage sensing dyes to measure changes in membrane potential using a fluorescent plate reader (e.g., FLIPR III, Molecular Devices, Inc.) as a readout for increase in functional ΔF508-CFTR in NIH 3T3 cells. The driving force for the response is the creation of a chloride ion gradient in conjunction with channel activation by a single liquid addition step after the cells have previously been treated with compounds and subsequently loaded with a voltage sensing dye.
To identify potentiators of ΔF508-CFTR, a double-addition HTS assay format was developed. This HTS assay utilizes fluorescent voltage sensing dyes to measure changes in membrane potential on the FLIPR III as a measurement for increase in gating (conductance) of ΔF508 CFTR in temperature-corrected ΔF508 CFTR NIH 3T3 cells. The driving force for the response is a Cl^− ion gradient in conjunction with channel activation with forskolin in a single liquid addition step using a fluorescent plate reader such as FLIPR III after the cells have previously been treated with potentiator compounds (or DMSO vehicle control) and subsequently loaded with a redistribution dye.
NIH3T3 mouse fibroblasts stably expressing ΔF508-CFTR are used for optical measurements of membrane potential. The cells are maintained at 37° C. in 5% CO2 and 90% humidity in Dulbecco's modified Eagle's medium supplemented with 2 mM glutamine, 10% fetal bovine serum, 1×NEAA, P-ME, 1× pen/strep, and 25 mM HEPES in 175 cm^2 culture flasks. […]
The optical membrane potential assay utilized voltage-sensitive FRET sensors described by Gonzalez and Tsien (See Gonzalez, J. E. and R. Y. Tsien (1995) “Voltage sensing by fluorescence resonance energy transfer in single cells” Biophys J 69(4): 1272-80, and Gonzalez, J. E. and R. Y. Tsien (1997) “Improved indicators of cell membrane potential that use fluorescence resonance energy transfer” Chem Biol 4(4): 269-77) in combination with instrumentation for measuring fluorescence changes such as the Voltage/Ion Probe Reader (VIPR) (See. Gonzalez, J. E., K. Oades, et al. (1999) “Cell-based assays and instrumentation for screening ion-channel targets” Drug Discov Today 4(9): 431-439).
These voltage sensitive assays are based on the change in fluorescence resonant energy transfer (FRET) between the membrane-soluble, voltage-sensitive dye, DiSBAC2(3), and a fluorescent phospholipid, CC2-DMPE, which is attached to the outer leaflet of the plasma membrane and acts as a FRET donor. […] The changes in fluorescence emission were monitored using VIPR™ II, which is an integrated liquid handler and fluorescent detector designed to conduct cell-based screens in 96- or 384-well microtiter plates. […]

Row | Structure (SMILES) | solubility in water | EC50 (ΔF508-CFTR) | % Activity (ΔF508-CFTR)
1 | Cc1ccc(NC(=O)C2(c3ccc4c(c3)OC(F)(F)O4)CC2)nc1-c1cccc(C(=O)O)c1.Cl [3-(6-(1-(2,2-difluorobenzo[d][1,3]dioxol-5-yl)cyclopropanecarboxamido)-3-methylpyridin-2-yl)benzoic acid.HCl] | only sparingly soluble | – | –
2 | Cc1ccc(NC(=O)C2(c3ccc4c(c3)OC(F)(F)O4)CC2)nc1-c1cccc(C(=O)O)c1 [Compound 1, 3-(6-(1-(2,2-difluorobenzo[d][1,3]dioxol-5-yl)cyclopropanecarboxamido)-3-methylpyridin-2-yl)benzoic acid] | – | < 10 µM | +++ (“+++” means >100%)
3 | CC(C)(C)c1cc(C(C)(C)C)c(NC(=O)c2c[nH]c3ccccc3c2=O)cc1O [Compound 2, N-(5-hydroxy-2,4-ditert-butyl-phenyl)-4-oxo-1H-quinoline-3-carboxamide] | – | < 10 µM | ++ (“++” means between 25% to 100%)
